One assay deals with Coagulation factor X (Homo sapiens, UniProt P00742). As to the kind of experiment: Tested for selectivity against Coagulation factor X.
The next assay deals with Serine protease 1 (Homo sapiens, UniProt P07477). Nature of the assay: Tested for selectivity against trypsin.
The next assay deals with Prothrombin (Homo sapiens, UniProt P00734). Nature of the assay: Tested for the binding affinity against thrombin.

We go through 16 compounds from ChEMBL document CHEMBL1129866, “S1 heterocyclic thrombin inhibitors” (Bioorg Med Chem Lett, 1997).

Coagulation factor X, sequence (P00742 41-179 limits assumed): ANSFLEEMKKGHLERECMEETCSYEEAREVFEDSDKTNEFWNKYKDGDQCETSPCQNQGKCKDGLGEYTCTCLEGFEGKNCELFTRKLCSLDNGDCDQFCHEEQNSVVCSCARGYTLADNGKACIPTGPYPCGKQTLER
Coagulation factor X, sequence (P00742 235-488 limits assumed): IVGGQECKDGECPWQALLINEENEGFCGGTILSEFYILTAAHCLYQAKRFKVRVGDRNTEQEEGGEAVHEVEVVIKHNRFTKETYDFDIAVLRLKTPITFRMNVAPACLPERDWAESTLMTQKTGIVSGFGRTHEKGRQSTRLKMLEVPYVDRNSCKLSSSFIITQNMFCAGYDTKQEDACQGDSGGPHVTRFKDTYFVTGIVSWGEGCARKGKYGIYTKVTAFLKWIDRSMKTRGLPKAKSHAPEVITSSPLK
Serine protease 1, sequence (P07477 whole entry): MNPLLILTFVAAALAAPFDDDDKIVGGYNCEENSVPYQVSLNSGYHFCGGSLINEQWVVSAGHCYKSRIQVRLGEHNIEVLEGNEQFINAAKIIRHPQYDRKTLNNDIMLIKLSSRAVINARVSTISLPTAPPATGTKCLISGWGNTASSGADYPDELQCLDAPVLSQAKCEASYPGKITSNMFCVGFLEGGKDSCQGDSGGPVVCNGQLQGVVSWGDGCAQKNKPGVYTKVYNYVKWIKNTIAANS

Broadly, the Ki is the equilibrium dissociation constant of an inhibitor or competing ligand from its target. `CC(=O)N[C@H](Cc1ccccc1)C(=O)N1CCC[C@H]1C(=O)N[C@@H](CCCn1ccnc1N)B1O[C@@H]2CC3CC(C3(C)C)[C@]2(C)O1` (stereo partly specified): the figures for the Ki at Coagulation factor X, at Serine protease 1 and on Prothrombin were above 6000 nM, 20 nM and 1.7 nM, respectively.
For `CC(=O)N[C@H](Cc1ccccc1)C(=O)N1CCC[C@H]1C(=O)N[C@@H](CCCNc1cc(Cl)nc(N)n1)B1O[C@@H]2CC3CC(C3(C)C)[C@]2(C)O1` (stereo partly specified) the same measures were above 6000 nM, above 1200 nM and 43 nM.
As to `CC(=O)N[C@H](Cc1ccccc1)C(=O)N1CCC[C@H]1C(=O)N[C@@H](CCCNc1ccnc(N)n1)B1O[C@@H]2CC3CC(C3(C)C)[C@]2(C)O1` (stereo partly specified), at Prothrombin, the Ki was 150 nM.
In the case of `CCCCS(=O)(=O)N[C@H](Cc1ccccc1)C(=O)N1CCC[C@H]1C(=O)N[C@@H](CCCNc1cc(Cl)nc(N)n1)B1O[C@@H]2CC3CC(C3(C)C)[C@]2(C)O1` (stereo partly specified), the Ki was above 6000 nM at Coagulation factor X, 214 nM on Serine protease 1 and 2.1 nM on Prothrombin.
`CC(=O)N[C@H](Cc1ccccc1)C(=O)N1CCC[C@H]1C(=O)N[C@@H](CCCSc1ncccn1)B1O[C@@H]2CC3CC(C3(C)C)[C@]2(C)O1` (stereo partly specified): the Ki at Serine protease 1 was above 1200 nM; on Prothrombin, 2000 nM.
Regarding `CCCCS(=O)(=O)N[C@H](Cc1ccccc1)C(=O)N1CCC[C@H]1C(=O)N[C@@H](CCCSc1ncccn1)B1O[C@@H]2CC3CC(C3(C)C)[C@]2(C)O1` (stereo partly specified), on Prothrombin, the Ki was 8.8 nM.
With `CCCCS(=O)(=O)N[C@H](Cc1ccccc1)C(=O)N1CCC[C@H]1C(=O)N[C@@H](CCCn1ccnc1N)B1O[C@@H]2CC3CC(C3(C)C)[C@]2(C)O1` (stereo partly specified), the inhibition constant (Ki) on Coagulation factor X stood at 970 nM; on Serine protease 1, 40 nM; at Prothrombin it was 3.2 nM.
For `CC(=O)N[C@H](Cc1ccccc1)C(=O)N1CCC[C@H]1C(=O)N[C@@H](CCCn1ncnc1[N+](=O)[O-])B1O[C@@H]2CC3CC(C3(C)C)[C@]2(C)O1` (stereo partly specified) the same measures were above 6000 nM, above 1200 nM and 199 nM.
For `CC(=O)N[C@H](Cc1ccccc1)C(=O)N1CCC[C@H]1C(=O)N[C@@H](CCCn1ncnc1N)B1O[C@@H]2CC3CC(C3(C)C)[C@]2(C)O1` (stereo partly specified) the same measures were above 6000 nM, above 1200 nM and 507 nM.
Regarding `CC(=O)N[C@H](Cc1ccccc1)C(=O)N1CCC[C@H]1C(=O)N[C@@H](CCCn1ccnc1)B1O[C@@H]2CC3CC(C3(C)C)[C@]2(C)O1` (stereo partly specified), the Ki at Coagulation factor X amounted to 6000 nM; at Serine protease 1 it was 27 nM; at Prothrombin, 67 nM.
For `CCCCS(=O)(=O)N[C@H](Cc1ccccc1)C(=O)N1CCC[C@H]1C(=O)N[C@@H](CCCn1ccnc1[N+](=O)[O-])B1O[C@@H]2CC3CC(C3(C)C)[C@]2(C)O1` (stereo partly specified) the same measures were 6000 nM, above 1200 nM and 15 nM.
Take `CC(=O)N[C@H](Cc1ccccc1)C(=O)N1CCC[C@H]1C(=O)N[C@@H](CCCn1ccnc1[N+](=O)[O-])B1O[C@@H]2CC3CC(C3(C)C)[C@]2(C)O1` (stereo partly specified): the Ki was above 6000 nM on Coagulation factor X, above 1200 nM at Serine protease 1 and 650 nM on Prothrombin.
The compound `CC(=O)N[C@H](Cc1ccccc1)C(=O)N1CCC[C@H]1C(=O)N[C@@H](CCCN=C(N)N)B(O)O` had a Ki on Coagulation factor X of 9 nM.
For `CC(=O)N[C@H](Cc1ccccc1)C(=O)N1CCC[C@H]1C(=O)N[C@@H](CCCn1nnnc1N)B1O[C@@H]2CC3CC(C3(C)C)[C@]2(C)O1` (stereo partly specified), the values for the inhibition constant Ki at Coagulation factor X, on Serine protease 1 and at Prothrombin were 6000 nM, above 1200 nM and 350 nM, respectively.
For `CC(=O)N[C@H](Cc1ccccc1)C(=O)N1CCC[C@H]1C(=O)N[C@@H](CCCNc1ncccn1)B1O[C@@H]2CC3CC(C3(C)C)[C@]2(C)O1` (stereo partly specified) the same measures were above 6000 nM, above 1200 nM and 600 nM.
For `CC(=O)N[C@H](Cc1ccccc1)C(=O)N1CCC[C@H]1C(=O)N[C@@H](CCCNc1ccccn1)B1O[C@@H]2CC3CC(C3(C)C)[C@]2(C)O1` (stereo partly specified) the same measures were above 6000 nM, above 1200 nM and 230 nM.
